Results taken from ChEMBL document CHEMBL6134780, “Halogenated retinoid derivatives as dual RARα and RXRα modulators for treating acute promyelocytic leukemia cells” (Eur J Med Chem, 2024).
Active and inactive are the calls of the source. The rule behind the calls is not given here.

How the values were obtained:
[1] = system: NB-4; test: Cell cycle arrest in human NB4 cells assessed as accumulation of cells at G0/G1 phase at 1 uM incubated for 12 hrs by DAPI staining based flow cytometric analysis (reference value: 51 %); type: functional
[2] = Cell cycle arrest in human ATRA-resistant NB4-LR2 cells assessed as accumulation of cells at sub-G1 phase at 2 uM incubated for 3 hrs by DAPI staining based flow cytometric analysis (reference value: 9 %); type: functional
[3] = system: NB-4; test: Induction of apoptosis in human NB4 cells assessed as early apoptotic cells at 1 uM incubated for 24 hrs by Annexin V-FITC/PI staining based flow cytometric analysis (reference value: 1.77 %); type: functional
[4] = Cell cycle arrest in human ATRA-resistant NB4-LR2 cells assessed as accumulation of cells at S phase at 2 uM incubated for 12 hrs by DAPI staining based flow cytometric analysis (reference value: 19 %); type: functional
[5] = system: NB-4; test: Cell cycle arrest in human NB4 cells assessed as accumulation of cells at S phase at 2 uM incubated for 6 hrs by DAPI staining based flow cytometric analysis (reference value: 20 %); type: functional
[6] = system: NB-4; test: Cell cycle arrest in human NB4 cells transfected with pLVX-shRNA2-negative control assessed as accumulation of cells at G2/M phase at 2 uM incubated for 12 hrs by DAPI staining based flow cytometric analysis (reference value: 24 %); type: functional
[7] = Cell cycle arrest in human ATRA-resistant NB4-LR2 cells assessed as accumulation of cells at G0/G1 phase at 1 uM incubated for 24 hrs by DAPI staining based flow cytometric analysis (reference value: 42 %); type: functional
[8] = system: ATRA-resistant NB4-LR2; test: Cell cycle arrest in human ATRA-resistant NB4-LR2 cells transfected with pLVX-shRXRalpha assessed as increase in cyclin B1 expression at 1 uM incubated for 12 hrs by Western blot analysis; type: functional, cell-based
[9] = system: NB-4; test: Cell cycle arrest in human NB4 cells transfected with pLVX-shRXRalpha plasmid assessed as accumulation of cells at G0/G1 phase at 1 uM incubated for 12 hrs by DAPI staining based flow cytometric analysis (reference value: 53 %); type: functional
[10] = system: NB-4; test: Cell cycle arrest in human NB4 cells transfected with pLVX-shPML-RARalpha plasmid assessed as accumulation of cells at G2/M phase at 2 uM incubated for 12 hrs by DAPI staining based flow cytometric analysis (reference value: 22 %); type: functional
[11] = system: NB-4; test: Cell cycle arrest in human NB4 cells assessed as accumulation of cells at G0/G1 phase at 2 uM incubated for 12 hrs by DAPI staining based flow cytometric analysis (reference value: 56 %); type: functional
[12] = system: NB-4; test: Cell cycle arrest in human NB4 cells assessed as accumulation of cells at sub-G1 phase at 1 uM incubated for 24 hrs by DAPI staining based flow cytometric analysis (reference value: 3 %); type: functional
[13] = system: NB-4; test: Cell cycle arrest in human NB4 cells assessed as accumulation of cells at G0/G1 phase at 2 uM incubated for 6 hrs by DAPI staining based flow cytometric analysis (reference value: 56 %); type: functional
[14] = Cell cycle arrest in human ATRA-resistant NB4-LR2 cells assessed as accumulation of cells at G2/M phase at 1 uM incubated for 24 hrs by DAPI staining based flow cytometric analysis (reference value: 25 %); type: functional
[15] = system: ATRA-resistant NB4-LR2; test: Induction of apoptosis in human ATRA-resistant NB4-LR2 cells transfected with pLVX-shRXRalpha assessed as increase in cleaved PARP expression at 1 uM incubated for 12 hrs by Western blot analysis; type: functional, cell-based
[16] = system: ATRA-resistant NB4-LR2; test: Cell cycle arrest in human ATRA-resistant NB4-LR2 cells transfected with pLVX-shRXRalpha assessed as increase in PLK1 expression at 1 uM incubated for 12 hrs by Western blot analysis; type: functional, cell-based
[17] = system: NB-4; test: Cell cycle arrest in human NB4 cells transfected with pLVX-shRNA2-negative control assessed as accumulation of cells at G2/M phase at 1 uM incubated for 12 hrs by DAPI staining based flow cytometric analysis (reference value: 24 %); type: functional
[18] = Cell cycle arrest in human ATRA-resistant NB4-LR2 cells assessed as accumulation of cells at sub-G1 phase at 2 uM incubated for 24 hrs by DAPI staining based flow cytometric analysis (reference value: 12 %); type: functional
[19] = system: NB-4; test: Cell cycle arrest in human NB4 cells transfected with pLVX-shRNA2-negative control assessed as accumulation of cells at S phase at 2 uM incubated for 12 hrs by DAPI staining based flow cytometric analysis (reference value: 26 %); type: functional
[20] = Cell cycle arrest in human ATRA-resistant NB4-LR2 cells assessed as accumulation of cells at sub-G1 phase at 1 uM incubated for 12 hrs by DAPI staining based flow cytometric analysis (reference value: 18 %); type: functional
[21] = system: NB-4; test: Cell cycle arrest in human NB4 cells transfected with pLVX-shRXRalpha plasmid assessed as accumulation of cells at G0/G1 phase at 2 uM incubated for 12 hrs by DAPI staining based flow cytometric analysis (reference value: 53 %); type: functional
[22] = Cell cycle arrest in human ATRA-resistant NB4-LR2 cells assessed as accumulation of cells at S phase at 1 uM incubated for 12 hrs by DAPI staining based flow cytometric analysis (reference value: 12 %); type: functional
[23] = Cell cycle arrest in human ATRA-resistant NB4-LR2 cells assessed as accumulation of cells at S phase at 2 uM incubated for 6 hrs by DAPI staining based flow cytometric analysis (reference value: 19 %); type: functional
[24] = system: NB-4; test: Cell cycle arrest in human NB4 cells transfected with pLVX-shPML-RARalpha plasmid assessed as accumulation of cells at sub-G1 phase at 2 uM incubated for 12 hrs by DAPI staining based flow cytometric analysis (reference value: 21 %); type: functional

Structure (SMILES): Cc1cc2c(cc1C(=O)/C(Br)=C/c1ccc(C(=O)O)cc1)C(C)(C)CCC2(C)C
- Activity [1]: 20%
- Activity [2]: 13%
- Activity [3]: 19.18%
- Activity [4]: 10%
- Activity [5]: 27%
- Activity [6]: 44%
- Activity [7]: 32%
- Activity [8]: inactive
- Activity [9]: 36%
- Activity [10]: 20%
- Activity [11]: 11%
- Activity [12]: 8%
- Activity [13]: 30%
- Activity [14]: 30%
- Activity [15]: inactive
- Activity [16]: inactive
- Activity [17]: 54%
- Activity [18]: 21%
- Activity [19]: 18%
- Activity [20]: 21%
- Activity [21]: 40%
- Activity [22]: 16%
- Activity [23]: 7%
- Activity [24]: 27%
